Experiments:
[1] = log P (neutral), HPLC on reversed-phase column (C 18), LC-MS neutral range; type: physicochemical; conditions: pH 7.8, ammonium hydrogencarbonate/acetonitrile; for chromatographic logP: reversed-phase HPLC column (C 18), pH 7.8, HPLC reversed-phase C 18, 55° C.; for log P (neutral): HPLC reversed-phase C 18, 55° C.
Experimental: Temperature: 55° C. […] Called log P (neutral) in the table.

Spodoptera frugiperda = Spodoptera frugiperda - spray test; type: in vivo; conditions: armyworm caterpillars on maize leaf discs, after 7 days
Experimental: Spodoptera frugiperda—Spray Test
(§1) • Solvent: 78.0 parts by weight of acetone • 1.5 parts by weight of dimethylformamide • Emulsifier: alkylaryl polyglycol ether
(§2) To produce a suitable active compound preparation, 1 part by weight of active compound is dissolved with the stated parts by weight of solvent and made up with water containing an emulsifier concentration of 1000 ppm until the desired concentration is attained. To produce further test concentrations, the preparation is diluted with emulsifier-containing water.
Leaf discs of maize (Zea mays) are sprayed with an active compound preparation of the desired concentration and, after drying, populated with caterpillars of the armyworm (Spodoptera frugiperda).
After 7 days, the efficacy in % is determined. 100% means that all the caterpillars have been killed; 0% means that no caterpillars have been killed.

Phaedon cochleariae = Phaedon cochleariae - spray test; type: in vivo; conditions: application rate 500 g/ha, mustard beetle larvae on Chinese cabbage leaf discs, after 7 days; for pest or weed control at 500 g/ha: Phaedon cochleariae, foliar, 168 h, read-out: efficacy
Experimental: Phaedon cochleariae—Spray Test
as §1, §2
After 7 days, the efficacy in % is determined. 100% means that all the beetle larvae have been killed; 0% means that no beetle larvae have been killed.

Myzus persicae = Myzus persicae - spray test; type: in vivo; conditions: all stages of green peach aphid on Chinese cabbage leaf discs, after 5-6 days
Experimental: Myzus persicae—Spray Test
• Solvent: 78 parts by weight of acetone • 1.5 parts by weight of dimethylformamide • Emulsifier: alkylaryl polyglycol ether
as §2
Discs of Chinese cabbage leaves (Brassica pekinensis) infested by all stages of the green peach aphid (Myzus persicae) are sprayed with an active compound preparation of the desired concentration.
After 5-6 days, the efficacy in % is determined. 100% means that all the aphids have been killed; 0% means that no aphids have been killed.

Lucilia cuprina = Lucilia cuprina test; type: in vivo; conditions: application rate 100 ppm; L1 larvae in minced horsemeat; after 2 days
Experimental: Lucilia cuprina Test • Solvent: dimethyl sulphoxide To produce a suitable active compound preparation, 10 mg of active compound are mixed with 0.5 ml of dimethyl sulphoxide, and the concentrate is diluted with water to the desired concentration. About 20 L1 larvae of the Australian sheep blowfly (Lucilia cuprina) are transferred into a test vessel containing minced horsemeat and the active compound preparation of the desired concentration. After 2 days, the kill in % is determined. 100% means that all the larvae have been killed; 0% means that no larvae have been killed.

With `CCS(=O)(=O)c1ccc(-n2cc(C(F)(F)F)cn2)nc1-c1nc2cc(C(F)(F)F)ccc2n1C` [Example I-1, 2-{3-(Ethylsulphonyl)-6-[4-(trifluoromethyl)-1H-pyrazol-1-yl]pyridin-2-yl}-1-methyl-5-(trifluoromethyl)-1H-benzimidazole] the chromatographic logP [1] was 4.16, the efficacy (Spodoptera frugiperda; application rate 500 g/ha) was 100% and the pest or weed control at 500 g/ha (Phaedon cochleariae) was 100%.
In the case of `CCS(=O)(=O)c1ccc(N)nc1-c1nc2cc(C(F)(F)F)ccc2n1C` [Example I-3, 5-(Ethylsulphonyl)-6-[1-methyl-5-(trifluoromethyl)-1H-benzimidazol-2-yl]pyridin-2-amine], the efficacy (Myzus persicae; application rate 500 g/ha) is reported as 100%, the chromatographic logP [1] is reported as 2.18 and the pest or weed control at 500 g/ha (Phaedon cochleariae) is reported as 100%.
With `CCS(=O)(=O)c1ccc(NC(C)=O)nc1-c1nc2cc(C(F)(F)F)cnc2n1C` [Example I-5, N-{5-(Ethylsulphonyl)-6-[3-methyl-6-(trifluoromethyl)-3H-imidazo[4,5-b]pyridin-2-yl]pyridin-2-yl}acetamide] the efficacy (Myzus persicae; application rate 500 g/ha) was 90%, the chromatographic logP [1] was 2.3 and the efficacy (Spodoptera frugiperda; application rate 100 g/ha) was 100%. For the same molecule, the pest or weed control at 500 g/ha (Phaedon cochleariae) was 100%.
`CCS(=O)(=O)c1ccc(NC(C)=O)nc1-c1nc2cc3c(cc2n1C)OC(F)(F)O3` [Example I-7, N-[6-(2,2-Difluoro-7-methyl-[1,3]dioxolo[4,5-f]benzimidazol-6-yl)-5-ethylsulphonyl-2-pyridyl]acetamide] gave a chromatographic logP [1] of 2.42, an efficacy (Spodoptera frugiperda; application rate 500 g/ha) of 83% and a pest or weed control at 500 g/ha (Phaedon cochleariae) of 100%.
In the case of `CCS(=O)(=O)c1ccc(-n2ccc(C(F)(F)F)n2)nc1-c1nc2cc(C(F)(F)F)ccc2n1C` [Example I-9], the efficacy (Myzus persicae; application rate 100 g/ha) is reported as 90%, the “log P (neutral)” value [1] is reported as 4.21 and the efficacy (Spodoptera frugiperda; application rate 500 g/ha) is reported as 100%. The “efficacy (kill)” value (Lucilia cuprina) was 100%.
With `CC[S+]([O-])c1ccc(-n2cc(C(F)(F)F)cn2)nc1-c1nc2cc(C(F)(F)F)cnc2n1C` (stereo not shown) [Example I-12] the “log P (neutral)” value [1] was 4.23 and the efficacy (Spodoptera frugiperda; application rate 500 g/ha) was 100%.
In the case of `CCS(=O)(=O)c1ccc(-n2cc(Cl)cn2)nc1-c1nc2cc(C(F)(F)F)cnc2n1C` [Example I-14], the “log P (neutral)” value [1] is reported as 3.9, the efficacy (Spodoptera frugiperda; application rate 500 g/ha) is reported as 100% and the “efficacy (kill)” value (Lucilia cuprina) is reported as 100%. It also gave an efficacy (Phaedon cochleariae) of 100%.
For `CCS(=O)(=O)c1ccc(NC(=O)C2CC2)nc1-c1nc2cc(C(F)(F)F)cnc2n1C` [Example I-16], the efficacy (Myzus persicae; application rate 500 g/ha) was 100%, the “log P (neutral)” value [1] was 2.76 and the efficacy (Spodoptera frugiperda; application rate 500 g/ha) was 100%. The efficacy (Phaedon cochleariae) was 100%.
For `CCS(=O)(=O)c1ccc(-n2cc(Cl)cn2)nc1-c1cn2cnc(C(F)(F)F)cc2n1` [Example I-17, 2-[6-(4-Chloro-1H-pyrazol-1-yl)-3-(ethylsulphonyl)pyridin-2-yl]-7-(trifluoromethyl)imidazo[1,2-c]pyrimidine], the chromatographic logP [1] was 3.46, the efficacy (Spodoptera frugiperda; application rate 500 g/ha) was 100% and the pest or weed control at 500 g/ha (Phaedon cochleariae) was 100%.
With `CCS(=O)(=O)c1ccc(NC(=O)CSC)nc1-c1nc2cc(C(F)(F)F)cnc2n1C` [Example I-20] the efficacy (Myzus persicae; application rate 500 g/ha) was 90%, the “log P (neutral)” value [1] was 2.79 and the efficacy (Phaedon cochleariae) was 100%.
For `CCS(=O)(=O)c1ccc(-n2nccn2)nc1-c1nc2cc(C(F)(F)F)cnc2n1C` [Example I-23], the efficacy (Myzus persicae; application rate 500 g/ha) was 90%, the “log P (neutral)” value [1] was 2.66 and the efficacy (Spodoptera frugiperda; application rate 500 g/ha) was 100%. For the same molecule, the efficacy (Phaedon cochleariae) was 100%.
With `CCS(=O)(=O)c1ccc(-n2cc(F)cn2)nc1-c1nc2cc(C(F)(F)F)cnc2n1C` [Example I-24] the efficacy (Myzus persicae; application rate 500 g/ha) was 90%, the “log P (neutral)” value [1] was 3.55 and the efficacy (Spodoptera frugiperda; application rate 500 g/ha) was 100%. The efficacy (Phaedon cochleariae) was 100%.
With `CCS(=O)(=O)c1ccc(NC(=O)C(C)CSC)nc1-c1nc2cc(C(F)(F)F)cnc2n1C` (stereo not shown) [Example I-25] the efficacy (Myzus persicae; application rate 500 g/ha) was 90% and the efficacy (Phaedon cochleariae) was 100%.
For `CCS(=O)(=O)c1ccc(-n2ccc(C(F)(F)F)n2)nc1-c1cn2cnc(C(F)(F)F)cc2n1` [Example I-29], the efficacy (Spodoptera frugiperda; application rate 500 g/ha) was 100% and the efficacy (Phaedon cochleariae) was 100%.
With `CCS(=O)(=O)c1ccc(N)nc1-c1cn2cnc(C(F)(F)F)cc2n1` [Example I-31] the efficacy (Myzus persicae; application rate 500 g/ha) was 90%, the “log P (neutral)” value [1] was 1.59 and the efficacy (Spodoptera frugiperda; application rate 500 g/ha) was 100%. For the same molecule, the efficacy (Phaedon cochleariae) was 100%.
In the case of `CCS(=O)(=O)c1ccc(NC(C)=O)nc1-c1cn2cnc(C(F)(F)F)cc2n1` [Example I-32], the efficacy (Myzus persicae; application rate 500 g/ha) is reported as 90%, the “log P (neutral)” value [1] is reported as 1.99 and the efficacy (Spodoptera frugiperda; application rate 500 g/ha) is reported as 80%. It also gave an efficacy (Phaedon cochleariae) of 100%.
With `CCSc1ccc(Cl)nc1-c1nc2cc3c(cc2n1C)OC(F)(F)O3` [XI-3, 6-(6-Chloro-3-ethylsulphanyl-2-pyridyl)-2,2-difluoro-7-methyl-[1,3]dioxolo[4,5-f]benzimidazole] the chromatographic logP [1] was 3.8.
For `CCSc1ccc(F)nc1-c1cn2cnc(C(F)(F)F)cc2n1` [XI-4, 2-[3-(Ethylsulphanyl)-6-fluoropyridin-2-yl]-7-(trifluoromethyl)imidazo[1,2-c]pyrimidine], the chromatographic logP [1] was 2.78.
Work on `CCSc1ccc(Br)nc1-c1nc2cc(C(F)(F)F)cnc2o1` [XI-5, 2-[6-Bromo-3-(ethylsulphanyl)pyridin-2-yl]-6-(trifluoromethyl)[1,3]oxazolo[5,4-b]pyridine] yielded a chromatographic logP [1] of 4.16.
`CCSc1ccc(Cl)nc1-c1nc2cc(C(F)(F)F)nnc2n1C` [XI-6, 6-(6-Chloro-3-ethylsulphanyl-2-pyridyl)-7-methyl-3-(trifluoromethyl)imidazo[4,5-c]pyridazine] showed a chromatographic logP [1] of 3.28.
`CCS(=O)(=O)c1ccc(F)nc1-c1nc2cc(C(F)(F)F)ccc2n1C` [XIII-1, 2-[3-(Ethylsulphonyl)-6-fluoropyridin-2-yl]-1-methyl-5-(trifluoromethyl)-1H-benzimidazole] gave a chromatographic logP [1] of 2.96.
`CCS(=O)(=O)c1ccc(F)nc1-c1nc2cc(C(F)(F)F)cnc2n1C` [XIII-2, 2-[3-(Ethylsulphonyl)-6-fluoropyridin-2-yl]-3-methyl-6-(trifluoromethyl)-3H-imidazo[4,5-b]pyridine] gave a chromatographic logP [1] of 2.8.
Work on `CCS(=O)(=O)c1ccc(Cl)nc1-c1nc2cc3c(cc2n1C)OC(F)(F)O3` [XIII-3, 6-(6-Chloro-3-ethylsulphonyl-2-pyridyl)-2,2-difluoro-7-methyl-[1,3]dioxolo[4,5-f]benzimidazole] yielded a chromatographic logP [1] of 3.2.
`CCS(=O)(=O)c1ccc(Cl)nc1-c1nc2cc(C(F)(F)F)nnc2n1C` [XIII-5, 6-(6-Chloro-3-ethylsulphonyl-2-pyridyl)-7-methyl-3-(trifluoromethyl)imidazo[4,5-c]pyridazine] showed a chromatographic logP [1] of 2.6.

Reference: patent publication US10667517B2, “2-(Het)aryl-substituted fused heterocycle derivatives as pesticides” (BAYER CROPSCIENCE AKTIENGESELLSCHSAFT, priority 2015, dated 2020)
